# Test results: the supplement of paper PMC11208160
# Assay: recombinant UMI read abundance after kanamycin selection (control-corrected) (log10(CPM+1)); higher = more efficient recombination; extreme values may be limits of the assay; sequences stand for … in AGTGCAGAGAAAATCGGCCAGTTTTCTCTGCCTGCAGTCCGCATGCCGTGGGACCCCTTGGGTTCTAACCTGTTGCCTAGATTTATGCAGCGGACTGCCTTTCTCCCAAAGTGATAAACCGG…AGGTTGGTTTCACT; site = the 11-nt donor
# Outline: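 Two replicates each of selected and unselected plating were used in this pooled Escherichia coli screen of donor and donor-binding-loop pairs for the IS621 bridge recombinase. Selection was with IPTG (0.07 mM) and kanamycin. Counts of recombinant UMIs, amplified across the donor–target junction, were converted to CPM, averaged, scaled by control-derived factors and reported as log10(CPM+1).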
# 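Note: IS621 bridge recombinase in Escherichia coli cells against a fixed T5 target plasmid.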
row,Sequence,recombinant UMI read abundance (log10)
1,GTTACGTCATGGACCGGTTTTCCCGGTAATCCGTATTTGTT (site GGTACGTCTAA),0.00806
2,GTTACGTCATGGACCGGTTTTCCCGGTAATCCGTATTTGTT (site GTTACGTCTAA),0.504
3,GTTAGAACATGGACCGGTTTTCCCGGTAATCCGTATTTGGC (site ATTAGAACTGC),0
4,GTTAGAACATGGACCGGTTTTCCCGGTAATCCGTATTTGGC (site CTTAGAACTGC),0
5,GTTAGAACATGGACCGGTTTTCCCGGTAATCCGTATTTGGC (site GATAGAACTGC),0
6,GTTAGAACATGGACCGGTTTTCCCGGTAATCCGTATTTGGC (site GCTAGAACTGC),0
7,GTTAGAACATGGACCGGTTTTCCCGGTAATCCGTATTTGGC (site GGTAGAACTGC),0
8,GTTAGAACATGGACCGGTTTTCCCGGTAATCCGTATTTGGC (site GTAAGAACTGC),0
9,GTTAGAACATGGACCGGTTTTCCCGGTAATCCGTATTTGGC (site GTCAGAACTGC),0
10,GTTAGAACATGGACCGGTTTTCCCGGTAATCCGTATTTGGC (site GTGAGAACTGC),0
11,GTTAGAACATGGACCGGTTTTCCCGGTAATCCGTATTTGGC (site GTTAAAACTGC),0
12,GTTAGAACATGGACCGGTTTTCCCGGTAATCCGTATTTGGC (site GTTACAACTGC),0
13,GTTAGAACATGGACCGGTTTTCCCGGTAATCCGTATTTGGC (site GTTAGAACTAC),0.00468
14,GTTAGAACATGGACCGGTTTTCCCGGTAATCCGTATTTGGC (site GTTAGAACTCC),0.0522
15,GTTAGAACATGGACCGGTTTTCCCGGTAATCCGTATTTGGC (site GTTAGAACTGA),0
16,GTTAGAACATGGACCGGTTTTCCCGGTAATCCGTATTTGGC (site GTTAGAACTGC),1.59

row,Sequence,recombinant UMI read abundance (log10)
1,GTTAGAACATGGACCGGTTTTCCCGGTAATCCGTATTTGGC (site GTTAGAACTGG),0
2,GTTAGAACATGGACCGGTTTTCCCGGTAATCCGTATTTGGC (site GTTAGAACTGT),0
3,GTTAGAACATGGACCGGTTTTCCCGGTAATCCGTATTTGGC (site GTTAGAACTTC),0
4,GTTAGAACATGGACCGGTTTTCCCGGTAATCCGTATTTGGC (site GTTAGACCTGC),0
5,GTTAGAACATGGACCGGTTTTCCCGGTAATCCGTATTTGGC (site GTTAGAGCTGC),0.0184
6,GTTAGAACATGGACCGGTTTTCCCGGTAATCCGTATTTGGC (site GTTAGATCTGC),0.83
7,GTTAGAACATGGACCGGTTTTCCCGGTAATCCGTATTTGGC (site GTTAGCACTGC),0.506
8,GTTAGAACATGGACCGGTTTTCCCGGTAATCCGTATTTGGC (site GTTAGGACTGC),0.0154
9,GTTAGAACATGGACCGGTTTTCCCGGTAATCCGTATTTGGC (site GTTAGTACTGC),0
10,GTTAGAACATGGACCGGTTTTCCCGGTAATCCGTATTTGGC (site GTTATAACTGC),1.54
11,GTTAGAACATGGACCGGTTTTCCCGGTAATCCGTATTTGGC (site GTTCGAACTGC),0
12,GTTAGAACATGGACCGGTTTTCCCGGTAATCCGTATTTGGC (site GTTGGAACTGC),0.696
13,GTTAGAACATGGACCGGTTTTCCCGGTAATCCGTATTTGGC (site GTTTGAACTGC),0
14,GTTAGAACATGGACCGGTTTTCCCGGTAATCCGTATTTGGC (site TTTAGAACTGC),0
15,GTTAGAACATGGACCGGTTTTCCCGGTAATCCGTATTTGGT (site GTTAGAACTAC),0.908
16,GTTAGAACATGGACCGGTTTTCCCGGTAATCCGTATTTGGT (site GTTAGAACTCC),0.0129
